Assay results from the supplement of paper PMC10307832.

How the values were obtained:
Test in all cases: relative viability (nuclei count vs DMSO), 5 days (fraction); higher = more cells survive
SK-LU-1 = system: SK-LU-1
Method in brief: (§1)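 A single step with final 0.05% Triton X-100, 1% formaldehyde and 1 ug/ml Hoechst fixed the cells and stained nuclei 5 days after treatment. Lung cancer cell lines in 1536-well plates had been treated by pin tool the day after seeding with one drug alone or a fixed anchor-drug dose plus five library-drug doses (not always all listed) in √10 steps, and nuclei were counted on 4× images. Relative viability is the ratio of nuclei in treated wells to nuclei in vehicle wells, taken as the median of duplicate plates.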

LXF-289 = system: LXF-289
Method in brief: as §1

NCI-H522 = system: NCI-H522
Method in brief: as §1

HCC-15 = system: HCC-15
Method in brief: as §1

NCI-H358 = system: NCI-H358
Method in brief: as §1

RERF-LC-KJ = system: RERF-LC-KJ
Method in brief: as §1

A-427 = system: A-427
Method in brief: as §1

PC-3 [JPC-3] = system: PC-3 [JPC-3]
Method in brief: as §1

NCI-H1734 = system: NCI-H1734
Method in brief: as §1

NCI-H1975 = system: NCI-H1975
Method in brief: as §1

NCI-H647 = system: NCI-H647
Method in brief: as §1

LC-2-ad = system: LC-2-ad
Method in brief: as §1

SW 1573 = system: SW 1573
Method in brief: as §1

NCI-H2228 = system: NCI-H2228
Method in brief: as §1

NCI-H2342 = system: NCI-H2342
Method in brief: as §1

NCI-H2347 = system: NCI-H2347
Method in brief: as §1

NCI-H2126 = system: NCI-H2126
Method in brief: as §1

HOP-62 = system: HOP-62
Method in brief: as §1

NCI-H1755 = system: NCI-H1755
Method in brief: as §1

NCI-H1915 = system: NCI-H1915
Method in brief: as §1

NCI-H1792 = system: NCI-H1792
Method in brief: as §1

Compound `CC(=O)O[C@@]12CO[C@@H]1C[C@H](O)[C@@]1(C)C(=O)[C@H](O)C3=C(C)[C@@H](OC(=O)[C@H](O)[C@@H](NC(=O)OC(C)(C)C)c4ccccc4)C[C@@](O)([C@@H](OC(=O)c4ccccc4)[C@H]21)C3(C)C` [Docetaxel] + CCNC(=O)c1noc(-c2cc(C(C)C)c(O)cc2O)c1-c1ccc(CN2CCOCC2)cc1 [Luminespib] (partner 0.01 µM) has a relative viability (SK-LU-1; first compound 0.0002 µM) of 0.205, a relative viability (SK-LU-1; first compound 0.000632 µM) of 0.218 and a relative viability (SK-LU-1; first compound 0.006325 µM) of 0.193. The relative viability (SK-LU-1; first compound 0.02 µM) was 0.159, the relative viability (LXF-289; first compound 0.0002 µM) was 0.683 and the relative viability (LXF-289; first compound 0.000632 µM) was 0.694. The relative viability (LXF-289; first compound 0.002 µM) was 0.138, the relative viability (LXF-289; first compound 0.006325 µM) was 0.111 and the relative viability (LXF-289; first compound 0.02 µM) was 0.0768. For the same compound, the relative viability (NCI-H522; first compound 0.0002 µM) was 1.19, the relative viability (NCI-H522; first compound 0.000632 µM) was 1.02 and the relative viability (NCI-H522; first compound 0.002 µM) was 0.703. The relative viability (NCI-H522; first compound 0.006325 µM) was 0.419, the relative viability (NCI-H522; first compound 0.02 µM) was 0.357 and the relative viability (HCC-15; first compound 0.0002 µM) was 0.35. It also gave a relative viability (HCC-15; first compound 0.000632 µM) of 0.303, a relative viability (HCC-15; first compound 0.002 µM) of 0.173 and a relative viability (HCC-15; first compound 0.006325 µM) of 0.182. The relative viability (HCC-15; first compound 0.02 µM) was 0.12, the relative viability (NCI-H358; first compound 0.0002 µM) was 0.314 and the relative viability (NCI-H358; first compound 0.000632 µM) was 0.305. The relative viability (NCI-H358; first compound 0.002 µM) was 0.135, the relative viability (NCI-H358; first compound 0.006325 µM) was 0.12 and the relative viability (NCI-H358; first compound 0.02 µM) was 0.098. The relative viability (RERF-LC-KJ; first compound 0.0002 µM) was 1.16, the relative viability (RERF-LC-KJ; first compound 0.000632 µM) was 0.853 and the relative viability (RERF-LC-KJ; first compound 0.002 µM) was 0.353. It also gave a relative viability (RERF-LC-KJ; first compound 0.02 µM) of 0.211, a relative viability (A-427; first compound 0.0002 µM) of 0.883 and a relative viability (A-427; first compound 0.000632 µM) of 0.832. It also gave a relative viability (A-427; first compound 0.002 µM) of 0.507, a relative viability (A-427; first compound 0.006325 µM) of 0.238 and a relative viability (A-427; first compound 0.02 µM) of 0.161. The relative viability (PC-3 [JPC-3]; first compound 0.0002 µM) was 0.678, the relative viability (PC-3 [JPC-3]; first compound 0.000632 µM) was 0.684 and the relative viability (PC-3 [JPC-3]; first compound 0.002 µM) was 0.5. The relative viability (PC-3 [JPC-3]; first compound 0.006325 µM) was 0.223, the relative viability (PC-3 [JPC-3]; first compound 0.02 µM) was 0.141 and the relative viability (NCI-H1734; first compound 0.0002 µM) was 0.213. The relative viability (NCI-H1734; first compound 0.000632 µM) was 0.197, the relative viability (NCI-H1734; first compound 0.002 µM) was 0.175 and the relative viability (NCI-H1734; first compound 0.006325 µM) was 0.161. For the same compound, the relative viability (NCI-H1734; first compound 0.02 µM) was 0.14, the relative viability (NCI-H1975; first compound 0.0002 µM) was 0.364 and the relative viability (NCI-H1975; first compound 0.000632 µM) was 0.24. It also gave a relative viability (NCI-H1975; first compound 0.002 µM) of 0.272, a relative viability (NCI-H1975; first compound 0.006325 µM) of 0.155 and a relative viability (NCI-H1975; first compound 0.02 µM) of 0.181. The relative viability (NCI-H647; first compound 0.0002 µM) was 0.112, the relative viability (NCI-H647; first compound 0.000632 µM) was 0.126 and the relative viability (NCI-H647; first compound 0.002 µM) was 0.147. For the same compound, the relative viability (NCI-H647; first compound 0.006325 µM) was 0.12, the relative viability (NCI-H647; first compound 0.02 µM) was 0.0798 and the relative viability (LC-2-ad; first compound 0.0002 µM) was 0.777. For the same compound, the relative viability (LC-2-ad; first compound 0.000632 µM) was 0.544, the relative viability (LC-2-ad; first compound 0.002 µM) was 0.503 and the relative viability (LC-2-ad; first compound 0.006325 µM) was 0.445. For the same compound, the relative viability (SW 1573; first compound 0.0002 µM) was 0.165, the relative viability (SW 1573; first compound 0.000632 µM) was 0.211 and the relative viability (SW 1573; first compound 0.002 µM) was 0.0935. For the same compound, the relative viability (SW 1573; first compound 0.006325 µM) was 0.137, the relative viability (SW 1573; first compound 0.02 µM) was 0.0617 and the relative viability (NCI-H2228; first compound 0.0002 µM) was 0.146. It also gave a relative viability (NCI-H2228; first compound 0.000632 µM) of 0.145, a relative viability (NCI-H2228; first compound 0.002 µM) of 0.129 and a relative viability (NCI-H2228; first compound 0.006325 µM) of 0.194. The relative viability (NCI-H2228; first compound 0.02 µM) was 0.19, the relative viability (NCI-H2342; first compound 0.0002 µM) was 0.673 and the relative viability (NCI-H2342; first compound 0.000632 µM) was 0.677. The relative viability (NCI-H2342; first compound 0.002 µM) was 0.673, the relative viability (NCI-H2342; first compound 0.006325 µM) was 0.462 and the relative viability (NCI-H2342; first compound 0.02 µM) was 0.4. The relative viability (NCI-H2347; first compound 0.0002 µM) was 0.513, the relative viability (NCI-H2347; first compound 0.000632 µM) was 0.631 and the relative viability (NCI-H2347; first compound 0.002 µM) was 0.39. The relative viability (NCI-H2347; first compound 0.006325 µM) was 0.311, the relative viability (NCI-H2347; first compound 0.02 µM) was 0.34 and the relative viability (NCI-H2126; first compound 0.0002 µM) was 0.914. It also gave a relative viability (NCI-H2126; first compound 0.000632 µM) of 0.739, a relative viability (NCI-H2126; first compound 0.002 µM) of 0.591 and a relative viability (NCI-H2126; first compound 0.006325 µM) of 0.403. It also gave a relative viability (NCI-H2126; first compound 0.02 µM) of 0.255, a relative viability (HOP-62; first compound 0.0002 µM) of 0.938 and a relative viability (HOP-62; first compound 0.000632 µM) of 0.744. For the same compound, the relative viability (HOP-62; first compound 0.002 µM) was 0.509, the relative viability (HOP-62; first compound 0.006325 µM) was 0.282 and the relative viability (NCI-H1755; first compound 0.0002 µM) was 0.427. It also gave a relative viability (NCI-H1755; first compound 0.000632 µM) of 0.492, a relative viability (NCI-H1755; first compound 0.002 µM) of 0.271 and a relative viability (NCI-H1755; first compound 0.006325 µM) of 0.218. For the same compound, the relative viability (NCI-H1755; first compound 0.02 µM) was 0.151, the relative viability (NCI-H1915; first compound 0.0002 µM) was 0.838 and the relative viability (NCI-H1915; first compound 0.000632 µM) was 0.796. The relative viability (NCI-H1915; first compound 0.002 µM) was 0.467, the relative viability (NCI-H1915; first compound 0.006325 µM) was 0.141 and the relative viability (NCI-H1915; first compound 0.02 µM) was 0.0759. For the same compound, the relative viability (NCI-H1792; first compound 0.0002 µM) was 0.43, the relative viability (NCI-H1792; first compound 0.000632 µM) was 0.374 and the relative viability (NCI-H1792; first compound 0.002 µM) was 0.382. For the same compound, the relative viability (NCI-H1792; first compound 0.006325 µM) was 0.338 and the relative viability (NCI-H1792; first compound 0.02 µM) was 0.212.
